Measured values from the CheMixHub viscosity set.
± gives the uncertainty stated by the source.

Assay: xn = mol fraction of the nth substance listed
Details: 101 kPa

NCCN + OCCCCO
viscosity [mPa·s]
Details	293.15 K	298.15 K	303.15 K	308.15 K	313.15 K	318.15 K
x1 = 0.0733	100 ± 14	74.8 ± 6.3	55.2 ± 1.2	43.2 ± 2.1	33.4 ± 1.7	–
x1 = 0.1427	101 ± 15	75.2 ± 6.4	55.3 ± 1.2	44.5 ± 2.2	33.8 ± 1.7	–
x1 = 0.2094	98.8 ± 14	72.8 ± 5.7	53.1 ± 0.72	42.5 ± 2.1	32 ± 1.6	28.8 ± 1.4
x1 = 0.2728	92.3 ± 12	67.6 ± 4.3	49.1 ± 2.4	39.1 ± 1.9	29.5 ± 1.5	25.8 ± 1.3
x1 = 0.3334	82.3 ± 8.5	60.1 ± 2.3	43.5 ± 2.1	34.4 ± 1.7	25.7 ± 1.3	22.6 ± 1.1
x1 = 0.3913	69.3 ± 4.7	50.5 ± 0.29	36.8 ± 1.8	29.2 ± 1.5	22 ± 1.1	19.3 ± 0.99
x1 = 0.4467	55.9 ± 1.3	40.8 ± 2	29.9 ± 1.5	23.7 ± 1.2	18.2 ± 0.94	16.1 ± 0.85
x1 = 0.4999	42.7 ± 2.1	31.5 ± 1.6	23.4 ± 1.2	19 ± 0.98	14.5 ± 0.77	12.9 ± 0.7
x1 = 0.551	32.1 ± 1.6	23.8 ± 1.2	18 ± 0.93	14.6 ± 0.78	11.3 ± 0.62	10.3 ± 0.57
x1 = 0.5999	23.8 ± 1.2	17.9 ± 0.93	13.7 ± 0.73	11.3 ± 0.62	8.84 ± 0.51	8.14 ± 0.47
x1 = 0.6469	17.4 ± 0.91	13.2 ± 0.71	10.2 ± 0.57	8.63 ± 0.5	7.05 ± 0.42	6.33 ± 0.39
x1 = 0.6921	12.7 ± 0.69	9.92 ± 0.56	7.8 ± 0.46	6.62 ± 0.4	5.34 ± 0.34	4.99 ± 0.33
x1 = 0.7358	9.34 ± 0.53	7.44 ± 0.44	5.91 ± 0.37	5.11 ± 0.33	4.17 ± 0.28	3.95 ± 0.26
x1 = 0.7777	7.02 ± 0.42	5.61 ± 0.35	4.57 ± 0.3	4 ± 0.26	3.28 ± 0.22	3.13 ± 0.21
x1 = 0.8181	5.28 ± 0.34	4.3 ± 0.28	3.53 ± 0.23	3.15 ± 0.21	2.61 ± 0.18	2.51 ± 0.17
x1 = 0.8572	4.06 ± 0.27	3.38 ± 0.23	2.78 ± 0.19	2.5 ± 0.17	2.1 ± 0.14	2.02 ± 0.14
x1 = 0.9311	2.51 ± 0.17	2.11 ± 0.14	1.78 ± 0.13	1.63 ± 0.12	1.41 ± 0.11	1.37 ± 0.11
